The source of these data is publication PMC6797648 (Targeted Oncology, 2019).

Values joined by “and” are separate entries in the source; they are usually repeats but may differ in a detail not shown here. Equal values may be shown once. A value given as a limit tells only on which side of the number the result lay.

A word on the Kd: it is the free concentration of one partner at which half of the binding sites on the other are occupied at equilibrium, for simple one-to-one binding. A word on the IC50: it is the concentration at which inhibition is half-maximal. The term Papp denotes a coefficient for how fast a substance crosses the barrier. A low value points to slow passage.

One data set has as its target PIK3CD/PIK3R1 (Homo sapiens, UniProt O00329). In words: Purified enzyme-binding kinetics.
The nature of data set [1]: Plasma and tissue distribution in A20 syngeneic model. Particulars: for Tumor concentration, times higher than plasma concentration: 4 h after the last dose. In kind it is in vivo, BALB/c mice.
A short description of data set [2]: Blood to plasma ratio in human whole blood. In kind it is in vitro ADME. Particulars: from the human B:P of 1.4.
Data set [3] is described as follows: Single-dose oral and IV pharmacokinetics in beagle dogs. In kind it is in vivo, beagle dog.
Data set [4] has as its system peripheral blood basophils. Conditions: healthy volunteers, oral administration, CD63 expression following ex vivo stimulation; cited from earlier work.
A short description of data set [5]: Allometric scaling of VSS to a hypothetical 60-kg human.
A further data set has as its system Caco-2 cell monolayer. The data set is described as follows: Caco-2 permeability and percent recovery.
For data set [6] the following is noted: healthy volunteers, oral; cited from earlier work.
For a further data set, the target named is purified PI3Kδ enzyme. Conditions: read-out: IC50, inhibition of purified PI3Kδ enzyme; cited from earlier work.
In another data set the test system is PI3Kδ. Particulars: read-out: IC50, inhibition of PI3Kδ in cellular assays; cited from earlier work.
A short description of data set [7]: Caco-2 permeability and percent recovery. Particulars: human, Caco-2, pH 7.4. (Caco-2 cells form a polarised layer with tight junctions and transporters.)
Setting [8] is: 50 mg/kg twice daily for 4 days.
Where [9] appears, read: 1 µM, Caco-2, apical to basolateral.
[10] abbreviates: 1 µM, Caco-2, basolateral to apical.
[11] abbreviates: ME-401 versus idelalisib, in vitro.

Sequence of PIK3CD/PIK3R1 (O00329 whole entry): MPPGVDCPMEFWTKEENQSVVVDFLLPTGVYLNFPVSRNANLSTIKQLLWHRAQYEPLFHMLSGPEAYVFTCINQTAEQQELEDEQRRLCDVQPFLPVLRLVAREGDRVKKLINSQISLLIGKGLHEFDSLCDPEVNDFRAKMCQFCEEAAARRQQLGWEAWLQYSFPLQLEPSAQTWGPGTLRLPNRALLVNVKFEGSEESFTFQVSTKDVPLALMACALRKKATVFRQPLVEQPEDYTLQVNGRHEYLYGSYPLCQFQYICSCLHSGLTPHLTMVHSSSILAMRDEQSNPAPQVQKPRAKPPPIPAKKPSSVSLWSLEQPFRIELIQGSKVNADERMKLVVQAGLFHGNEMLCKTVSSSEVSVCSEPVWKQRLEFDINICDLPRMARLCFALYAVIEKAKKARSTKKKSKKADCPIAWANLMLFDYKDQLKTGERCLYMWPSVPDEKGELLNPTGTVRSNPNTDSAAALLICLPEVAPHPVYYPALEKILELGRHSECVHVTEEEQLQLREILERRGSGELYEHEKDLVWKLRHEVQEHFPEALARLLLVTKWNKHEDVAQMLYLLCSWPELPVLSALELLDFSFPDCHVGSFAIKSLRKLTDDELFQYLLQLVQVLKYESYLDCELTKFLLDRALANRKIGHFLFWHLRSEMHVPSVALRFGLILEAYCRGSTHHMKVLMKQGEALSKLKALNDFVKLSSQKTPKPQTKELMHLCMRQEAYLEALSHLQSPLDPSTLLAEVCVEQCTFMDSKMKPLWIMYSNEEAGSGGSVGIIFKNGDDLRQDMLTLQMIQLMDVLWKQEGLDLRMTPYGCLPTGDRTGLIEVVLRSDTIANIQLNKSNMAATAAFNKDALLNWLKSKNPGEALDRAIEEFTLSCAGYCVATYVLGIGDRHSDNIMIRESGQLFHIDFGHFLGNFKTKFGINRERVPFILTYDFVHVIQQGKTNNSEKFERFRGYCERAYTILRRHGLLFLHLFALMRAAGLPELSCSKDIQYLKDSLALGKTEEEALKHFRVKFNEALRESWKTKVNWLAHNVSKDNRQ
Sequence of PIK3CD/PIK3R1 (P27986 whole entry partner): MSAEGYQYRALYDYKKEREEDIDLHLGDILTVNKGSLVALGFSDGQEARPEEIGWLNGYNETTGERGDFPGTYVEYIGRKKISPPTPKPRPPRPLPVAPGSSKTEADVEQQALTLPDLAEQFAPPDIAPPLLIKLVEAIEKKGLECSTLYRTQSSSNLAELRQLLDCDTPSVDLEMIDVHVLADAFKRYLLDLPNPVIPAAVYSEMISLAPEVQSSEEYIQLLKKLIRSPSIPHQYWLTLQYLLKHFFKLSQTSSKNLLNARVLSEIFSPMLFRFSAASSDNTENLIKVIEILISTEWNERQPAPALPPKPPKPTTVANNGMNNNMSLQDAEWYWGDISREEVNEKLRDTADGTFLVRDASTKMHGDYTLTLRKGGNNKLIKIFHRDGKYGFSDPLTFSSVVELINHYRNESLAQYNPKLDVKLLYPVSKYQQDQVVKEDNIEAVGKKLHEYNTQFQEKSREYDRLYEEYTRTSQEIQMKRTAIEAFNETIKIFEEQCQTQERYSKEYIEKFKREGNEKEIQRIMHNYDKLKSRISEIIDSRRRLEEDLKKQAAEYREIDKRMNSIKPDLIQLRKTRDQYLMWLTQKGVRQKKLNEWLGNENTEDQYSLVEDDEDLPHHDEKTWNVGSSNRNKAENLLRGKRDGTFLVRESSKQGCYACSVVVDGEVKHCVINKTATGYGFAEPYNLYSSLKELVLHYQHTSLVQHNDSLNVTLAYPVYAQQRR

`CC[C@H](Nc1ncnc2[nH]cnc12)c1nc2cccc(F)c2c(=O)n1-c1ccccc1` [Idelalisib, idelalisib, reference compound]: the “Dissociation rate, times higher than ME-401” value at PIK3CD/PIK3R1 (idelalisib versus ME-401) is ~ 100 times. Further, the “Tumor concentration, times higher than plasma concentration” value (shortened to “Tumor concentration”) in data set [1] (setting [8]) was “approximately three times higher”.

As to `CN1CCC(c2ccccc2CC(C)(C)Nc2nc(N3CCOCC3)nc(-n3c(C(F)F)nc4ccccc43)n2)CC1` [ME-401], the “Drug in the blood that distributes into blood cells at equilibrium” value in [2] is “approximately 60%”. The AUCinf in data set [3] (dogs, 2 mg/kg IV) turned out to be 1247 ng·h/mL. In [3] (dogs, oral 2 mg/kg versus IV 2 mg/kg), this compound came in with a Bioavailability of 79%. In addition, the AUCinf in data set [3] (fasted dogs, 2 mg/kg orally) stood at 980 ng·h/mL. In addition, in data set [4], the “EC90 plasma concentration, inhibition of basophil activation” value is on record as 5 ng/mL. Also, in data set [5], the “Extrapolated human VSS, times higher than blood volume” value is given as “approximately 100 times”; the “Extrapolated human VSS, times higher than whole body volume” value was “approximately 15 times”; the “Extrapolated human VSS, times larger than that reported for idelalisib” value is reported as ~ 28 times. For the same compound, the “Retained in the monolayer” value in the data set on Caco-2 cell monolayer (1 µM, Caco-2) is ~ 50%. In the data set on Caco-2 cell monolayer (setting [9]), the “Recovery, AB, cell lysate included” value came out at 79.3 ± 5.5% and the “Recovery, AB, only the experimental solutions measured” value is reported as 30.3 ± 6.7%. Further, in the data set with Caco-2 cell monolayer (setting [10]), the “Recovery, BA, cell lysate included” value is recorded as 85 ± 8.5% and the “Recovery, BA, only the experimental solutions measured” value is reported as 69 ± 5.6%. Further, the “AB Papp” value in the data set on Caco-2 cell monolayer (apical to basolateral, Caco-2, pH 7.4, 2 h, 37 °C) is listed as 3.67 ± 1.37 × 10^−6 cm/s. In addition, the “BA Papp” value in the data set on Caco-2 cell monolayer (basolateral to apical, Caco-2, pH 7.4, 2 h, 37 °C) is recorded as 7.69 ± 1.39 × 10^−6 cm/s. The Half-life in [6] was 28 h. For the same compound, the Residence time on PIK3CD/PIK3R1 (22 °C) is ~5 h and 5.3 h. Further, the “kd dissociation rate constant” value on PIK3CD/PIK3R1 (22 °C, 1:1 binding model) worked out at 5.2e-05 s⁻¹. Further, at PIK3CD/PIK3R1 (setting [11]), the “Binds more tightly than idelalisib” value is ~ 37 times and the “Remains on-target longer than idelalisib” value is ~ 138 times. The Kd at PIK3CD/PIK3R1 (read-out: KD equilibrium dissociation constant, 22 °C, 1:1 binding model) was 0.03 nM and 0.0303 nM. The IC50 on purified PI3Kδ enzyme is 5 nM. The IC50 in the data set on PI3Kδ is 0.6 nM. Also, in data set [1] (setting [8]), the “Tumor concentration” value is “approximately 20 times”. Also, the “Brain tissue concentration as percent of plasma values” in [1] (75 mg/kg twice daily for 4 days, 4 and 24 h after the last dose) is given as “approximately 30%”. The “Tumor concentration” value in [1] (75 mg/kg twice daily for 4 days) is on record as “approximately 30 times”. Further, the “Decrease of tumor levels at 24 h compared with levels at 4 h” value in [1] (oral administration, A20 syngeneic mouse model) was 30–50%.

In data set [7], `CC(C)NCC(O)COc1cccc2ccccc12` (stereo not drawn) [propranolol, reference compound] yielded a Papp at 2 h, 10 uM of more than 30 ×10⁻⁶ cm/s.
